Results from US20130316374A1, “BREAST CANCER DIAGNOSTICS” (IMBA - INSTITUT FUR MOLEKULARE BIOTECHNOLOGIE GMBH, priority 2010, published 2013).

B1: RANKL: Receptor Activator of NF-κB Ligand; recombinant murine RANKL used for stimulation (protein, UniProt O35235 139-316, looked up)
Tumor necrosis factor ligand …: FSGAPAMMEGSWLDVAQRGKPEAQPFAHLTINAASIPSGSHKVTLSSWYHDRGWAKISNMTLSNGKLRVNQDGFYYLYANICFRHHETSGSVPTDYLQLMVYVVKTSIKIPSSHNLMKGGSTKNWSGNSEFHFYSINVGGFFKLRAGEEISIQVSNPSLLDPDQDATYFGAFKVQDID

Assays:
NFκB pathway, CyclinD1 = test: NFκB pathway activation and CyclinD1 expression in mammary epithelial cells after MPA; type: in vivo, mouse; settings: three day MPA treatment
Source text: a, Activation of the NFκB pathway and CyclinD1 expression by MPA. Nulliparous RANK^Δmam and littermate control females were s.c. implanted with slow-release MPA pellets or treated with sham surgery. a, In situ immunostaining to detect phosphorylated (P) IκBα in mammary epithelial cells of RANK^Δmam and littermate control females after 3d MPA treatment. b, Western blot analysis of CyclinD1 and RANKL in isolated mammary epithelial cells from RANK^Δmam and littermate control females after 3d MPA treatment. Recombinant, murine sRANKL protein is shown for molecular size comparison. β-actin is shown as a loading control.
RANKL-RANK signaling via IKKα-NFκB-CyclinD1 in mammary epithelial cells is illustrated in FIG. 11a. […] To directly show whether RANK mediates NFκB-CyclinD1 activation downstream of progestins in vivo, mice were challenged with MPA. […] The Id2 pathway is a second genetically confirmed down-stream pathway for RANKL/RANK in mammary epithelial cells^17. To extend these findings to human, human SKBR3 breast tumor cells were assayed. […] To further test the effects of RANKL stimulation the ability of these cells to grow in an anchorage-independent manner was assessed, which correlates well with tumorigenicity in vivo^18.

[1] = system: primary mouse mammary gland epithelial cells (MECs); test: Western blotting of RANKL/RANK downstream signaling in MECs; type: cell-based; settings: RANKL stimulation (1 μg/ml)
Experimental: a, Western blotting for phosphorylated (P) IKKα, total IKKα, phosphorylated (P) p65 NFκB, total p65 NFκB, phosphorylated (P) IκBα, and total IκBα in isolated primary mouse mammary gland epithelial cells (MECs) in response to RANKL stimulation (1 μg/ml). […] is shown as loading control. b, Western blotting for IKKα, IKKβ, IKKγ, phosphorylated (P) p65 NFκB, total p65 NFκB, phosphorylated (P) IκBα, and total IκBα in pooled late stage mammary adenocarconimas (n=4 for each lane) that developed in control, RANK^Δmam, and IKKα^Δmam females. β-actin is shown as loading control c, Expression of RANK, CyclinD1, and p21 mRNA in late stage mammary adenocacinomas that developed in control, RANK^Δmam, and IKKα^Δmam females. Expression was determined by qRT-PCR. Data are mean values+/−sem. n=4 per group. d, Soft-Agar Colony Formation Assay. Growth of human SKBR3 breast cancer cells in soft agar in response to stimulation with RANKL (1 μg/ml) or EGF (100 ng/ml). […] Apoptosis was detected by immunostaining for active Caspase 3. f, Apoptotic nuclei of epithelial cells (arrows) are shown for representative mammary gland sections. Magnifications ×40. g, Quantification of mammary epithelial apoptosis. A minimum of 5000 nuclei was counted for each mouse. […]

[2] = system: SKBR3 breast cancer cells; test: Growth curve of SKBR3 breast cancer cells; type: cell-based, human; settings: RANKL (1 μg/ml), 3 days
Experimental: a, Western blotting for phosphorylated (P) p65 NFκB, total p65 NFκB, phosphorylated (P) IκBα, total IκBα, phosphorylated (P) ERK1/2, total ERK1/2, phosphorylated (P) p38-MAPK, and p38-MAPK in human SKBR3 breast cancer cells in response to RANKL stimulation (1 μg/ml). Data are representative of 3 experiments. b, Growth curve of SKBR3 breast cancer cells cultured in normal growth medium (control, DMEM supplemented with 10% FCS) or in the presence of RANKL (1 μg/ml). Cell numbers were determined by counting live cells (trypan blue-exclusion) over 3 days. c, Onset of palpable mammary tumors in NFATc1^Δmam (n=10) and age matched littermate control (n=16) females treated with MPA pellets and DMBA. Data are shown as percentage of tumor free mice after the last DMBA challenge. No significant difference was found. d, Quantification of NFATc1 mRNA expression in purified mammary epithelial cells (MECs) and MPA-driven mammary tumors from NFATc1^Δmam and littermate control females. mRNA was determined by qRT-PCR. Data are shown as fold change compared to control (+/−sem). n=5 Per group. *P<0.05 (Student's t-test).

| Molecule | nuclear phosphorylated IκBα and CyclinD1 protein expression (NFκB pathway, CyclinD1; RANK^Δmam female) | CyclinD1 protein expression in mammary epithelial cells (NFκB pathway, CyclinD1; control females) | nuclear phosphorylated IκBα in mammary epithelial cells (NFκB pathway, CyclinD1; control females) | p65 NFκB and IκBα phosphorylation [1] | phosphorylation of p38-MAPKs and ERK [1] | proliferation of SKBR3 cells [2] |
| --- | --- | --- | --- | --- | --- | --- |
| CC(=O)O[C@]1(C(C)=O)CC[C@H]2[C@@H]3C[C@H](C)C4=CC(=O)CC[C@]4(C)[C@H]3CC[C@@]21C [MPA, medroxyprogesterone acetate] | severely reduced | induction of CyclinD1 protein expression | nuclear accumulation of phosphorylated IκBα |  |  |  |
| B1 |  |  |  | resulted in p65 NFκB and IκBα phosphorylation | triggered phosphorylation of p38-MAPKs and ERK | induced |
